Results as given in ChEMBL document CHEMBL2034873, “Discovery of a Novel Series of CHK1 Kinase Inhibitors with a Distinctive Hinge Binding Mode” (ACS Med Chem Lett, 2012).
pEC50, pIC50, pKd: −log10 of the molar value.

What was measured:
[1] = Selectivity ratio of IC50 for cyclinE/CDK2 to IC50 for CHK1
[2] = molecular target: T1, Serine/threonine-protein kinase Chk1 (Homo sapiens, UniProt O14757); test: Inhibition of recombinant His-tagged CHK1 using biotin-RSGLYRSPSMPENLNRPR as substrate after 1 hr by scintillation proximity assay
T1 sequence (O14757 whole entry): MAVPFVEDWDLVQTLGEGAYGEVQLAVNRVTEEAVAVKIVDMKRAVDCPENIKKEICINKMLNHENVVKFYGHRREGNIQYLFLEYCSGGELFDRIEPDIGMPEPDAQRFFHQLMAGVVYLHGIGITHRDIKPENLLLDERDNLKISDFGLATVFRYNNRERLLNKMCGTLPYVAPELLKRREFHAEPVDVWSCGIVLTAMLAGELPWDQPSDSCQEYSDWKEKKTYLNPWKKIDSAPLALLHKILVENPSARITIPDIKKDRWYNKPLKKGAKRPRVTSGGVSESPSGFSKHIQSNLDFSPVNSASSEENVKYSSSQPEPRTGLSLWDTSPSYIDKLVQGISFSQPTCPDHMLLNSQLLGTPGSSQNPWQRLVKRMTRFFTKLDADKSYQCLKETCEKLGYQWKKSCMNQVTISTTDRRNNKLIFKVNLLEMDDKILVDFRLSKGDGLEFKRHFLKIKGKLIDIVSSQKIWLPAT

[3] = molecular target: T1, Serine/threonine-protein kinase Chk1; test: Inhibition of CHK1 in human U2OS cells pretreated with hydroxyurea assessed as gamma-H2AX level after 2 hrs by immunofluorescence assay; assay type: cell-based
[4] = molecular target: T1, Serine/threonine-protein kinase Chk1; test: Binding affinity to CHK1 by affinity-selection-mass […] assay
[5] = molecular target: Cyclin-dependent kinase 2/cyclin E1 (Homo sapiens, UniProt P24941); test: Inhibition of Cyclin E/CDK2 expressed in Sf9 cells using [33gamma]ATP after 1 hr by liquid scintillation counter

Ratio IC50 [1] | pIC50 [2] | pEC50 [3] | pKd [4] | pIC50 [5] | SMILES
 | 7.05 |  |  |  | O=C(Nc1ccccc1N1CCNCC1)c1csc(-c2ccc(-c3ccccc3)s2)n1
6 | 7.16 |  |  |  | O=C(Nc1ccccc1N1CCNCC1)c1csc(-c2csc3ccccc23)n1
3 | 7.07 |  |  |  | C[C@H]1CN(c2ccccc2NC(=O)c2csc(-c3ccc4c(c3)CCO4)n2)CCN1
380 | 8.30 | 5.60 |  |  | O=C(Nc1ccccc1N1CCNCC1)c1csc(-c2ccc3sccc3c2)n1
 | 4.68 |  |  |  | Cc1nc(-c2ccc3c(c2)CCO3)sc1C(=O)Nc1ccccc1N1CCNCC1
0.67 | 6.72 |  |  |  | O=C(Nc1ccccc1N1CCNCC1)c1csc(-c2cn[nH]c2)n1
2 | 6.92 |  |  |  | C[C@@H]1CN(c2ccccc2NC(=O)c2csc(-c3ccc4c(c3)CCO4)n2)CCN1
 | < 4.30 |  |  |  | O=C(Nc1ccccc1N1CCOCC1)c1csc(-c2ccc3c(c2)CCO3)n1
0.34 | 5.39 |  |  |  | CC(=O)N1CCN(c2ccccc2NC(=O)c2csc(-c3ccc4c(c3)CCO4)n2)CC1
 | 4.89 |  |  |  | O=C(Nc1ccccc1N1CCNCC1)c1csc(-c2cncnc2)n1
73 | 7.72 |  |  |  | CN(C)c1ccc(-c2nc(C(=O)Nc3ccccc3N3CCNCC3)cs2)cc1
12 | 6.24 |  |  |  | COc1ccc(-c2nc(C(=O)Nc3ccccc3N3CCNCC3)cs2)cc1C
 | < 4.30 |  |  |  | CN(C)Cc1ccc(-c2nc(C(=O)Nc3ccccc3N3CCNCC3)cs2)cc1
 | < 4.30 |  |  |  | O=C(Nc1ccccc1N1CCNCC1=O)c1csc(-c2ccc3c(c2)CCO3)n1
33 | 6.96 |  |  |  | O=C(Nc1ccccc1N1CCNCC1)c1csc(-c2cc[nH]n2)n1
 | < 4.30 |  |  |  | O=C1CN(c2ccccc2NC(=O)c2csc(-c3ccc4c(c3)CCO4)n2)CCN1
32 | 6.36 |  |  |  | O=C(Nc1ccccc1N1CCNCC1)c1csc(C#Cc2ccccc2)n1
33 | 8.15 | 5.82 |  |  | O=C(Nc1ccccc1N1CCNCC1)c1csc(-c2cc3ccccc3s2)n1
6.6 | 6.28 |  |  |  | COc1ccc(-c2nc(C(=O)Nc3ccccc3N3CCNCC3)cs2)cc1OC
 | 6.72 |  |  |  | O=C(Nc1ccccc1N1CCNCC1)c1csc(-c2ccc3c(c2)OCCCO3)n1

More lines, now with the values behind:

SMILES | Ratio IC50 [1] | pIC50 [2] | pEC50 [3] | pKd [4] | pIC50 [5]
O=C(Nc1ccccc1C1=CCNCC1)c1csc(-c2ccc3c(c2)CCO3)n1 | 1.7 | 6.12 |  |  | 
O=C(Nc1ccccc1N1CCNCC1)c1nc(-c2ccc3c(c2)CCO3)cs1 |  | < 4.30 |  |  | 
O=C(Nc1ccccc1N1CCNCC1)c1csc(-c2cccs2)n1 | 16 | 7.44 |  |  | 
O=C(Nc1ccccc1N1CCNCC1)c1csc(-c2ccc(Oc3ccccc3)cc2)n1 | 3600 | 8.30 | < 4.30 |  | 
O=C(Nc1ccccc1N1CCNCC1)c1csc(-c2ccc3c(c2)CCO3)n1 | 2.7 | 7.12 | 5.00 | > 7.00 | 6.68
O=C(Nc1ccccc1N1CCNCC1)c1csc(-c2cccnc2)n1 | 0.8 | 5.85 |  |  | 
O=C(Nc1ccccc1N1CCNCC1)c1cc(-c2ccc3c(c2)OCO3)on1 |  | 5.47 |  |  | 
O=C(Nc1ccccc1N1CCNCC1)c1csc(-c2cc[nH]c2)n1 |  | 7.00 |  |  | 
O=C(Nc1ccccc1C1CCNCC1)c1csc(-c2ccc3c(c2)CCO3)n1 | 1.8 | 5.35 |  |  | 
O=C(Nc1ccccc1N1CCNCC1)c1csc(-c2ccncc2)n1 | 0.54 | 5.82 |  |  | 
CC1CNCCN1c1ccccc1NC(=O)c1csc(-c2ccc3c(c2)CCO3)n1 (stereo unspecified) |  | 6.55 |  |  | 
O=C(Nc1ccccc1N1CCNCC1)c1csc(-c2ccc3occc3c2)n1 | 27 | 7.72 | 5.70 |  | 
O=C(Nc1ccccc1N1CCNCC1)c1csc(-c2ccc3c(c2)OCO3)n1 | 18 | 6.77 |  |  | 
O=C(Nc1ccccc1N1CCNCC1)c1csc(-c2ccccc2)n1 | 12 | 7.06 |  |  | 
O=C(Nc1ccccc1N1CCNCC1)c1csc(-c2ccsc2)n1 | 5 | 6.68 |  |  | 
O=C(Nc1ccccc1N1CCNCC1)c1csc(-c2ccc3[nH]ccc3c2)n1 | 960 | 8.40 | 5.46 |  | 
CC#Cc1nc(C(=O)Nc2ccccc2N2CCNCC2)cs1 |  | 5.41 |  |  | 
N#Cc1ccc(-c2nc(C(=O)Nc3ccccc3N3CCNCC3)cs2)cn1 |  | 5.28 |  |  | 
CN1CCN(c2ccccc2NC(=O)c2csc(-c3ccc4c(c3)CCO4)n2)CC1 | 0.16 | 5.70 |  |  | 
COc1ccc(-c2nc(C(=O)Nc3ccccc3N3CCNCC3)cs2)cc1 | 5 | 7.14 |  |  | 
O=C(Nc1ccccc1N1CCNCC1)c1csc(-c2ccc(-c3cccs3)s2)n1 |  | 6.89 |  |  | 
O=C(Nc1ccccc1N1CCNCC1)c1csc(-c2ccc[nH]2)n1 |  | 5.92 |  |  | 
